The text below walks through data of PMC12389269, “Heteroaryl-Capped Hydroxamic Acid Derivatives with Varied Linkers: Synthesis and Anticancer Evaluation with Various Apoptosis Analyses in Breast Cancer Cells, Including Docking, Simulation, DFT, and ADMET Studies” (Pharmaceuticals, 2025).

The structures appear in SMILES notation. In brackets after ≈: the same amount, converted by molar mass. A value given as a limit tells only on which side of the number the result lay.

In one test the target is T1, HDAC6 (Homo sapiens, UniProt Q9UBN7).
T1 construct: The HeLa nuclear extract was used as a source of HDAC activity; host or cells: HeLa (nuclear extract / cells)
T1 sequence (Q9UBN7 1-1215): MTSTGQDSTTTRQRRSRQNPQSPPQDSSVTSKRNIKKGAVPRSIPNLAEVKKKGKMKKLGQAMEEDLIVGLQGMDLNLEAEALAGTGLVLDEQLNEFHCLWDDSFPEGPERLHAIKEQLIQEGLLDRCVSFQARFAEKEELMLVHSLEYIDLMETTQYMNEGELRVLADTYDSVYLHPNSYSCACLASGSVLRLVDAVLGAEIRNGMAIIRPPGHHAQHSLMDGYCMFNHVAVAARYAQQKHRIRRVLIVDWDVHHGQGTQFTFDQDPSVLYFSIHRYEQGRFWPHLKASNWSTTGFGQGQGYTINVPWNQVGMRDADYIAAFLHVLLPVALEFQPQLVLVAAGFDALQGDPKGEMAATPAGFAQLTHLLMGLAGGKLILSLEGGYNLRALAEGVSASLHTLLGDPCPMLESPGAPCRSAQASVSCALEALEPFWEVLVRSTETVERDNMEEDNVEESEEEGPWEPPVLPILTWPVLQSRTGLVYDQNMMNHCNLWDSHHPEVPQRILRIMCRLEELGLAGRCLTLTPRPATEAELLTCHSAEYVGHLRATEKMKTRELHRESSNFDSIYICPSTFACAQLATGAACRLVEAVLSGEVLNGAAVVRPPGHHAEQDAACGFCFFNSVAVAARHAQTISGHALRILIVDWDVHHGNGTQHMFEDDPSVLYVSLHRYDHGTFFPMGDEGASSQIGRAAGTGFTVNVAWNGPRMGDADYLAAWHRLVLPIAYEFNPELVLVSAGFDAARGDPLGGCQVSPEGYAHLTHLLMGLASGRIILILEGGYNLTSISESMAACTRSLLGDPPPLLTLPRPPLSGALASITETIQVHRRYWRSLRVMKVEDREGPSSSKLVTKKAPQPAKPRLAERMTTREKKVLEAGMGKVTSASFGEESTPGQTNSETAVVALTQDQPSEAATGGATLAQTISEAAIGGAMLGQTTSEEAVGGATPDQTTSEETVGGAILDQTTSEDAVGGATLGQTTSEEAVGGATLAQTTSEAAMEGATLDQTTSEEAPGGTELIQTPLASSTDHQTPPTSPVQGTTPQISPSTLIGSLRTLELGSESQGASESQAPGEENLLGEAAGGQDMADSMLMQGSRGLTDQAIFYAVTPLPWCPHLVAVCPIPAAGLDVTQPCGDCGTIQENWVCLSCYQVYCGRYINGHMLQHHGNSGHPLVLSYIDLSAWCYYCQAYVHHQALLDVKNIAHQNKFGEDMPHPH
Nature of the test: HDAC inhibition assay (color de lys ELISA kit), HDAC6. Particulars: HeLa nuclear extract as source of HDAC activity. It is filed as biochemical. The protocol:
(§1) SAHA served as the assay’s positive control. The HeLa nuclear extract was used as a source of HDAC activity. The trypsinized HeLa cells were tallied, put into 96-well microtiter plates, and nurtured. Samples and the standard were placed in wells at a concentration of 100 µL. The culture environment was maintained as per the procedure. 3,3′,5,5′-tetramethylbenzidine (TMB) was included for visualization. Finally, 50 µL of halt solution was smeared. The samples and different SAHA concentrations (0.01, 0.1, 1, 10 μM) were introduced to the appropriate well and left for 72 h. BioTek Epoch (Winooski, VT, USA) microplate reader was used to quantify optical density at 450 nm. The Graph Pad Prism 5 helped to determine the IC50 values.
(ELISA stands for enzyme-linked immunosorbent assay.)

Another test relates to A549 cells. Kind of test: MTT cytotoxicity assay, A549. The following applies: Homo sapiens, A549, 24 h. It is filed as cell-based. The protocol: (§2) Following an extensive review of the literature, we selected human breast cancer (MCF-7, MDA-MB-231) and lung cancer (A549) cell lines to evaluate the anticancer potential of the synthesized compounds, and some compounds with good anti-proliferation activity were again tested to evaluate their cytotoxic potential on A-549, MCF-7, and MDA-MB-231. The same were also tested on one non-cancerous/normal (HEK-293) cell line. All the cell lines for the required screening were developed in a suitable medium comprising 10% FBS and 2mM L-glutamine. Cancerous and non-cancerous/normal cell lines were selected for the cell proliferation and cytotoxicity assay and maintained with 5% CO2 at 37 °C in a CO2 incubator with 100% relative humidity for one complete day before the addition of experimental drugs.
(§3) MTT, a well-known colorimetric cytotoxic assay was performed to validate the cytotoxicity of the selected compounds—VI(b), VI(c), VI(e), and VI(i)—against three different human tumor cell lines [MCF-7, MDA-MB-231, A549] and a normal cell line [HEK293]. The seeding of 1 × 10^4 cells onto each well was executed in a 96-well plate in triplicate, and to keep the cells viable, overnight incubation was undertaken at 37 °C with 5% CO2 in a CO2 incubator. […] The microplate reader was set at 570 nm to measure the absorbance of each well.
(In general: Tetrazolium assays rely on reduction of a dye to a coloured formazan, in cell work by metabolically active cells.)

In another test the test system is MDA-MB-231 cells. Nature of the test: MTT cytotoxicity assay, MDA-MB-231. The following applies: Homo sapiens, MDA-MB-231, 24 h. It is filed as cell-based. The protocol:
as §2, §3

The test system of test [1] is A-549 (Human Lung Cancer Cell Line). Kind of test: SRB antiproliferative assay, A-549. Particulars: Homo sapiens, A549, A-549, 48 h, read-out: GI50. The class given is cell-based. The protocol: as §2
Antiproliferative activity through an SRB assay was performed for all the synthesized compounds on A-549 and MCF-7 cell lines. Around 5000 cells/well were quarantined into a 96-well microtiter plate in 100 μL. The synthesized compounds were solubilized in DMSO and diluted to different concentrations before use. The final-drug-concentration aliquots were poured into microtiter wells, and the plates were incubated for 48 h in regular conditions. After adding the final drug concentration, the cells were allowed to set in place and incubated for 60 min. A total of 50 µL of SRB solution (0.4% w/v) in 1% CH3COOH was poured into each well. The plates were then incubated for 20 min at RT. During subsequent staining, the unbounded dye was removed, and the plate reader recorded the eluted bound stain at 540 nm with a 690 nm reference wavelength. The assay was performed precisely using the appropriate reagents and reaction situation, as per the reported procedure. ADR was selected as the reference drug.
(Sulforhodamine B stains cellular protein and so reports cell mass.)

For another test, the system named is MCF-7 cells. Nature of the test: MTT cytotoxicity assay, MCF-7. It is filed as cell-based. The following applies: Homo sapiens, MCF7, MCF-7, 24 h. The protocol:
as §2, §3

Another test has as its target T2, HDAC1 (Homo sapiens, UniProt Q13547).
T2 construct: The HeLa nuclear extract was used as a source of HDAC activity; host or cells: HeLa (nuclear extract / cells)
Kind of test: HDAC inhibition assay (color de lys ELISA kit), HDAC1. It is filed as biochemical. Particulars: HeLa nuclear extract as source of HDAC activity. The protocol:
as §1

T2 sequence (Q13547 whole entry): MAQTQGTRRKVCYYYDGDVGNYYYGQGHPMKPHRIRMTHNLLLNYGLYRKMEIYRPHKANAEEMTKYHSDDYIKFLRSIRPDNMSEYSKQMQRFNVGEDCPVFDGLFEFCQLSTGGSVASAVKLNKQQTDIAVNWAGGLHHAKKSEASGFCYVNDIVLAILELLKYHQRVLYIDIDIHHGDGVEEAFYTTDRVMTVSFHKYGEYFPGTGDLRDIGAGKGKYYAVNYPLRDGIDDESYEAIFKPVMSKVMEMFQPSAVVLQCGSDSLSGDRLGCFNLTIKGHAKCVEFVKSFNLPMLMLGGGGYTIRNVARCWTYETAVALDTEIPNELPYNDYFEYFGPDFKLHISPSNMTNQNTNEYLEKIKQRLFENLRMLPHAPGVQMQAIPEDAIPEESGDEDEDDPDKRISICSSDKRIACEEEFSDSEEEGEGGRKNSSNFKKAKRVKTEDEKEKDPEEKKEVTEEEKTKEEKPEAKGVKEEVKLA

The IC50 is the point on the concentration scale where inhibition reaches its midpoint. A lower IC50 goes with inhibition by little substance. For orientation: GI50 means the concentration at which growth is held to half of that of the control. Take `COc1ccc(-c2cnn(CCCCCC(=O)NO)n2)cc1` [VI(i), N-Hydroxy-6-(4-(4-methoxyphenyl)-2H-1,2,3-triazol-2-yl)hexanamide]: the IC50 against HDAC6 is 13.4 µM; in the test on A549 cells, more than 100 µg/mL; with MDA-MB-231 cells, more than 100 µg/mL; in the test with MCF-7 cells it was 60 µg/mL (≈ 197 µM); against HDAC1, 10.1 µM. Besides, the GI50 in test [1] was less than 10 µg/mL.
